Measured values reported in patent US6015808A, “Synthesis of pharmaceutical compositions with lactams and β-lactams/oxo thia azabicyclo compounds” (priority 1995, dated 2000).
≈ marks a conversion by molar mass, not a printed value. Entries after “also recorded” stand apart in the source; their conditions may differ. Starred links: 1 amine or outer side, 2 acyl side, 3 side chain; linkers in the order of their positions; H or OH if unused. Positions of bridges follow the written chain, without caps; N, C: chain ends. Non-standard residues stand in square brackets, D forms with d. Residues, ends and D or L forms follow the SMILES beside them. Chains are numbered I, II in the order given. Actinocin(9to1) = Cc1c2oc3c(C)ccc(C(=O)[*:1])c3nc-2c(C(=O)[*:2])c(N)c1=O; NMeV = CN[C@H](C(=O)O)C(C)C; Sar = CNCC(=O)O

Columns and labels:
P. marneffei = assay: in vitro MIC against P. marneffei, tube double dilution; type: cell-based, Penicillium marneffei; conditions: Talaromyces marneffei, standard tube double dilution, read-out: minimum inhibitory concentration (MIC)
Candida albicans = assay: survival of mice challenged with Candida albicans; type: in vivo, Swiss albino mice; conditions: for survival rate: 21-day study period, clotrimazole types 7.5 mg/kg, nystatin types 50 mg/kg; for survival rate after extended treatment: treatment extended two more weeks, 28 days post-inoculation
[1] = test system: human breast carcinoma MX-1; assay: MX-1 human breast tumor in nude mice; conditions: intraperitoneal; for effect on MX-1 tumors (in words): 0.5 mg/kg escalating to 5 mg/kg (parents) or 20 mg/kg (JAI-); for deaths / survival of MX-1 mice (in words): 3 animals per group
Experimental: Nude mice were grafted with transplantable human breast carcinoma MX-1, which was allowed to grow until the tumors were very large. The mice were then treated with clinically compatible dosage schedules of the compounds. All doses were administered intraperitoneally.
A control group (3 animals in the group), grafted with MX-1 tumor, which was allowed to grow to large tumors. Then, the mice were injected with distilled water and their tumors were measured simultaneously with the experimental treated animals.
1. […] The starting dose of mitomycin C was 0.5 mg/kg. escalating up to 5 mg/kg to all mice in the group. […] (3 animals per group).
2. […] The starting dose was 0.5 mg/kg escalating to 20 mg/kg. […] (3 animals per group).
3. […] The starting dose was 0.5 mg/kg escalating to 5 mg/kg. (3 animals per group).
4. […] The starting dose was 0.5 mg/kg escalating to 20mg/kg doses. (3 animals per group).

M. leprae = assay: in vitro culture of M. leprae, growth inhibition; type: cell-based
[2] = test system: Mycobacterium avicum Complex (MAC); conditions: cited from earlier work
oral absorption = type: in vivo
toxicity / LD 50 in mice = conditions: mouse, in vivo
fungi = conditions: cited from earlier work
Bacillus subtilis = conditions: 28° C., 12 hours
Experimental: All plates were incubated at 10° C. for 30 minutes, and then transferred to an incubator at 28° C. for 12 hours. Zones of inhibition were obtained from each plate, and Rf values were calculated.

bacteria = conditions: cited from earlier work

Question: For `Nc1nc(=O)[nH]cc1F` [5-FC, 5-fluorocytosine], which MIC (P. marneffei) is on record?
Answer: Its MIC is 0.195 to 0.78 µg/mL (≈ 1.51 to 6.04 µM).

Question: For `Clc1ccccc1C(c1ccccc1)(c1ccccc1)n1ccnc1` [Clotrimazole], which solubility in water is on record?
Answer: Its solubility in water is “insoluble in water”.

Question: And the survival rate (Candida albicans)?
Answer: The survival rate was 62.5%.

Question: And the “survival rate after extended treatment” value (Candida albicans)?
Answer: The value was “zero”.

Question: With `CO[C@@]12[C@H](COC(N)=O)C3=C(C(=O)C(C)=C(N)C3=O)N1C[C@@H]1N[C@@H]12` [Mitomycin C] as the compound, how does the “effect on MX-1 tumors (in words)” value ([1]; listed as Mitomycin-C) read?
Answer: The value was “the tumors regressed”.

Question: And the “effect on MX-1 tumors (in words)” value ([1]; listed as mitomycin-C)?
Answer: Its value is “eliminated the human MX-1 breast tumors”.

Question: And the “deaths / survival of MX-1 mice (in words)” value ([1]; listed as Mitomycin-C)?
Answer: Its value is “died”.

Question: And the “deaths / survival of MX-1 mice (in words)” value ([1]; listed as mitomycin-C)?
Answer: Its value is “All animals died in a two month time span; also recorded: all animals in this treatment group died from hepatotoxicity”.

Question: What does the source list for `NCC[C@H](O)C(=O)N[C@@H]1C[C@H](N)[C@@H](O[C@H]2O[C@H](CN)[C@@H](O)[C@H](O)[C@H]2O)[C@H](O)[C@H]1O[C@H]1O[C@H](CO)[C@@H](O)[C@H](N)[C@H]1O` [amikacin]?
Answer: inhibition at 100 µg/mL (M. leprae; Mycobacterium leprae, 100 mcg/ml, read-out: growth inhibition against M. leprae): 63%; M. leprae killed (M. leprae; concentration not given): 63%; effect of combination with dapsone on M. leprae (M. leprae; in combination with dapsone): did not show any additive effects; activity against MAC (earlier studies) [2]: high in vitro and in vyvn activity

Question: Which results are given for `C[C@@H]1[C@H](O)[C@@H](C)/C=C/C=C/C=C/C=C/C=C/C=C/C=C/[C@H](O[C@@H]2O[C@H](C)[C@@H](O)[C@H](N)[C@@H]2O)C[C@@H]2O[C@](O)(C[C@@H](O)C[C@@H](O)[C@H](O)CC[C@@H](O)C[C@@H](O)CC(=O)O[C@H]1C)C[C@H](O)[C@H]2C(=O)O` [amphotericin B]?
Answer: oral absorption (oral absorption): poorly absorbed orally; MIC (P. marneffei): 0.195 to 1.56 µg/mL (≈ 0.211 to 1.69 µM)

Question: Which LD50 (toxicity / LD 50 in mice) does the source give for `Cc1c2oc3c(C)ccc(C(=O)N[C@@H]4C(=O)N[C@H](C(C)C)C(=O)N5CCC[C@H]5C(=O)N(C)CC(=O)N(C)[C@@H](C(C)C)C(=O)O[C@@H]4C)c3nc-2c(C(=O)N[C@@H]2C(=O)N[C@H](C(C)C)C(=O)N3CCC[C@H]3C(=O)N(C)CC(=O)N(C)[C@@H](C(C)C)C(=O)O[C@@H]2C)c(N)c1=O` [dactinomycin] (I: T[dV]P[Sar][NMeV] / II: T[dV]P[Sar][NMeV]; ester I:1-I:C, II:1-II:C; linker I:N-II:N via Actinocin(9to1)) here?
Answer: The LD50 was 0.5 to 5 mg/kg.

Question: With `CC(=O)N1CCN(c2ccc(OCC3COC(Cn4ccnc4)(c4ccc(Cl)cc4Cl)O3)cc2)CC1` (stereo not drawn) [ketoconazole] as the compound, how does the MIC (P. marneffei) read?
Answer: The MIC was 0.195 to 0.39 µg/mL (≈ 0.367 to 0.734 µM).

Question: For `Clc1ccc(COC(Cn2ccnc2)c2ccc(Cl)cc2Cl)c(Cl)c1` (stereo not drawn) [miconazole], which MIC (P. marneffei) is on record?
Answer: Its MIC is 0.195 µg/mL (≈ 0.469 µM).

Question: Which survival rate (Candida albicans) does the source give for `C[C@@H]1[C@H](O)[C@@H](C)/C=C/C=C/CC/C=C/C=C/C=C/C=C/C(O[C@H]2O[C@H](C)[C@@H](O)[C@H](N)[C@@H]2O)CC2O[C@](O)(CC(O)C(O)CCC(O)CC(O)CC(O)CC(=O)O[C@H]1C)CC(O)C2C(=O)O` (stereo partly drawn) [nystatin] here?
Answer: The survival rate was 75%.

Question: What about the “survival rate after extended treatment” value (Candida albicans) of the same compound?
Answer: The value was 75%.

Question: What does the source list for `CC1(C)S[C@@H]2[C@H](NC(=O)Cc3ccccc3)C(=O)N2[C@H]1C(=O)O` [sodium penicillin G]?
Answer: antifungal activity (stated as known) (fungi): no antifungal activity; solubility in acetone (acetone): insoluble in acetone; solubility in methanol, alcohol, other solvents (methanol, alcohols, ethyl acetate, other solvents): soluble in water, alcohol and some solvents; solubility in water: soluble in water

Question: Which results are given for bleomycin?
Answer: effect on MX-1 tumors (in words) [1]: some initial slowing in tumor growth, but then had no response; effect on MX-1 tumors (in words) ([1]; listed as Bleomycin): some initial slowing of tumor growth, but then there was no response

Question: Which “zone of inhibition, B. subtilis seeded plate” value (Bacillus subtilis) does the source give for hamycin here?
Answer: The value was “no zone spot”.

Question: And the “antibacterial activity (stated as known)” value (bacteria)?
Answer: Its value is “no antibacterial activity”.
